Like-named read-outs stand apart in the source and are kept apart here. One block for each molecule: values may come before it.
Tests used:
MDA-MB-231 cells [1] = experiment: Measurement of extracellular pH; assay type: cell-based; conditions: for Extracellular pH, Hypoxic condition: hypoxia, control 6.84; for Extracellular pH, Normoxic condition: normoxia, control 7.06; for effect on extracellular pH: MDA-MB-231, 0.1 mM and 1.0 mM
Method: (§1) The main role of CA IX and XII in tumour development is to regulate the pH of the tumour growth microenvironment so that tumour cells are in a weakly acidic environment. Such an acidic environment is conducive to the growth of tumour cells and protects tumour cells from being killed by chemotherapeutics.
(§2) The changes in extracellular pH were evaluated according to previously published procedures. Cancer cells were grown in the medium containing 10% FBS and incubated in 6-well plates for 12 h. After removing the medium, we added fresh medium to the 6-well plates and incubated them for 48 h under hypoxia or normoxia. Then, we measured the pH of the culture medium immediately after collection. The tested compounds were dissolved in DMSO and diluted to the desired concentration. After the addition of tested compounds, the same procedure was carried out.

HT-29 cells [2] = experiment: Measurement of extracellular pH; assay type: cell-based; conditions: for Extracellular pH, Hypoxic condition: hypoxia, control 6.81; for Extracellular pH, Normoxic condition: normoxia, control 7.02; for effect on extracellular pH: HT-29, 0.1 mM and 1.0 mM
Method: as §1, with “chemotherapeutics. We evaluated the effects of 0.1 mM and 1.0 mM of compounds 16a and 16b on the pH of the tumour cell growth environment under normoxia or hypoxia (detailed data is provided in the Tables S5 and S6 of supplementary information).” for “chemotherapeutics.”
as §2

MG-63 cells = experiment: CCK-8 cell viability assay; assay type: cell-based, human; conditions: for viability at 800 µM: Homo sapiens, MG-63, 800 μM, 48 h
Method: The human osteosarcoma cell line MG-63 is a high-expressing cell line of CA IX and XII [24]. We selected compound 16b with the best activity in the above studies to study the cell viability inhibitory activity of MG-63 (detailed data is provided in the Table S4 of supplementary information).
(§3) Cell viability was tested by CCK-8 assay. The MDA-MB-231, HT-29 and MG-63 cell lines were provided by KeyGEN BioTECH Ltd. (Nanjing, Jiangsu, China). The cancer cell suspension was prepared to 5.0 × 10^4 cells/mL. After adding 100 μL cell suspension into each well of 96-well plates, the 96-well plates were placed in the incubator at 37 °C and 5% CO2 for 24 h. The compounds were diluted to the required concentration with the medium, and 100 μL of the corresponding medium was added to each well. Meanwhile, the negative control group was set up. The plates were incubated in normoxia or hypoxia for 48 h. The CCK-8 solution (10 μL) was added to each well, and the cells were incubated for another 3 h. After removing the bubbles in each well, cell viability was assessed by measuring the absorbance at 450 nm wavelength using a microplate reader. The hypoxia atmosphere consisted of 0.5% O2, 5% CO2, and 94.5% N2. The normoxia atmosphere was air.

HT-29 cells [3] = experiment: CCK-8 cell viability assay; assay type: cell-based; conditions: for viability at 400 µM: Homo sapiens, HT-29, 400 μM, 48 h; for decrease in cell viability: HT-29, highest concentration of 400 μM
Method: (§4) The CCK-8 assay was used to evaluate the cytotoxicity of compounds 16a, 16b, and 16e on the breast cancer cell line MDA-MB-231 and colon cancer cell line HT-29. MDA-MB-231 and HT-29 are tumour cells that have been reported to express CA IX. We cultivated them under normoxia and hypoxia respectively and then evaluated the effects of the compounds on tumour cell viability at different concentrations.
as §3

MDA-MB-231 cells [4] = experiment: CCK-8 cell viability assay; assay type: cell-based; conditions: Homo sapiens, MDA-MB-231, 400 μM, 48 h
Method: as §4, §3

MDA-MB-231 cells [5] = experiment: Cell migration (scratch wound) assay; assay type: cell-based; conditions: MDA-MB-231, 400 μM, hypoxia
Method: Tumour cell migration is one of the basic biological characteristics of tumour cells. […] MDA-MB-231 was selected as the experimental cell line to explore the ability of 16a to reduce tumour cells migration under hypoxia.
MDA-MB-231 cells (1 × 10^5 cells/well) were cultured in 6-well plates and wounded by scratching with a pipette tip. The wounded cell monolayers were washed three times with PBS and incubated with serum-free medium.

hCA IX = hCA IX (Homo sapiens, UniProt Q16790); experiment: CA inhibition assay (hydrolysis of 4-nitrophenylacetate); assay type: biochemical; conditions: 4-NPA hydrolysis; three independent assays, relative errors 5–10%
Text: (§5) Carbonic anhydrase has the ability to catalyse the hydrolysis of 4-NPA. […] More detailed operations and specific parameters are as reported earlier.

hCA II = hCA II (Homo sapiens, UniProt P00918); experiment: as above; assay type: biochemical; conditions: 4-NPA hydrolysis; three independent assays, relative errors 5–10%
Text: as §5

hCA XII = hCA XII (Homo sapiens, UniProt O43570); experiment: as above; assay type: biochemical; conditions: 4-NPA hydrolysis; three independent assays, relative errors 5–10%
Chain of hCA XII (O43570 25-354): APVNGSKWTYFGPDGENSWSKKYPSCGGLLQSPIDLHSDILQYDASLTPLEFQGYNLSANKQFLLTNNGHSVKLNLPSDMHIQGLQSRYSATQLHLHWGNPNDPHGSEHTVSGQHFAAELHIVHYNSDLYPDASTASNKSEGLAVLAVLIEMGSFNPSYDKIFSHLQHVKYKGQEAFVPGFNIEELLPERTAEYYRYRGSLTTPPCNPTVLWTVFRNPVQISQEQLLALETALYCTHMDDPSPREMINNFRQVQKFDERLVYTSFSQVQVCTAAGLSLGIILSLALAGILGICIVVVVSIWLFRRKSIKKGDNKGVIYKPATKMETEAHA
Text: as §5

[6] = hypoxia, read-out: cell viability, Hypoxic condition (%)
[7] = normoxia, read-out: cell viability, Normoxic condition (%)

IC50 (hCA IX): 51.6 nM | IC50 (hCA II): 27.7 nM | IC50 (hCA XII): 135 nM
Structure (SMILES): NS(=O)(=O)c1ccc(-n2cc(-c3ccc(NC(=O)CCC(=O)N[C@@H]4O[C@H](CO)[C@@H](O)[C@H](O)[C@H]4O)cc3)nn2)cc1 [Compound 16a, N^1-(4-(1-(4-sulfamoylphenyl)-1H-1,2,3-triazol-4-yl)phenyl)-N^4-((2R,3R,4S,5S,6R)-3,4,5-trihydroxy-6-(hydroxymethyl)tetrahydro-2H-pyran-2-yl)succinamide]
effect on tumour cell migration (MDA-MB-231 cells [5]; at 72 h): could hardly be detected | effect on tumour cell migration (MDA-MB-231 cells [5]; first 24 h, vs blank group): slight inhibitory effect | effect on extracellular pH (MDA-MB-231 cells [1]): improve the extracellular pH | Extracellular pH, Hypoxic condition (MDA-MB-231 cells [1]; MDA-MB-231, 0.1 mM): 6.9 | Extracellular pH, Normoxic condition (MDA-MB-231 cells [1]; MDA-MB-231, 0.1 mM): 7.04 | Extracellular pH, Hypoxic condition (MDA-MB-231 cells [1]; MDA-MB-231, 1.0 mM): 7.31 | Extracellular pH, Normoxic condition (MDA-MB-231 cells [1]; MDA-MB-231, 1.0 mM): 7.21 | effect on extracellular pH (HT-29 cells [2]): improve the extracellular pH | Extracellular pH, Hypoxic condition (HT-29 cells [2]; HT-29, 0.1 mM): 6.88 | Extracellular pH, Normoxic condition (HT-29 cells [2]; HT-29, 0.1 mM): 6.97 | Extracellular pH, Hypoxic condition (HT-29 cells [2]; HT-29, 1.0 mM): 7.26 | Extracellular pH, Normoxic condition (HT-29 cells [2]; HT-29, 1.0 mM): 7.13 | decrease in cell viability (HT-29 cells [3]): 20% | viability at 400 µM (HT-29 cells [3]; [6]): 82.6 ± 1.92% | viability at 400 µM (HT-29 cells [3]; [7]): 83.3 ± 2.09% | viability at 400 µM (MDA-MB-231 cells [4]; [6]): 85.1 ± 1.68% | viability at 400 µM (MDA-MB-231 cells [4]; [7]): 88.9 ± 1.71%

IC50 (hCA IX): 86.6 nM | IC50 (hCA II): 13.3 nM | IC50 (hCA XII): 256 nM
Structure (SMILES): NS(=O)(=O)c1ccc(-n2cc(-c3cccc(NC(=O)CCC(=O)N[C@@H]4O[C@H](CO)[C@@H](O)[C@H](O)[C@H]4O)c3)nn2)cc1 [Compound 16b, N^1-(3-(1-(4-sulfamoylphenyl)-1H-1,2,3-triazol-4-yl)phenyl)-N^4-((2R,3R,4S,5S,6R)-3,4,5-trihydroxy-6-(hydroxymethyl)tetrahydro-2H-pyran-2-yl)succinamide]
effect on extracellular pH (MDA-MB-231 cells [1]): improve the extracellular pH | Extracellular pH, Hypoxic condition (MDA-MB-231 cells [1]; MDA-MB-231, 0.1 mM): 6.88 | Extracellular pH, Normoxic condition (MDA-MB-231 cells [1]; MDA-MB-231, 0.1 mM): 7.02 | Extracellular pH, Hypoxic condition (MDA-MB-231 cells [1]; MDA-MB-231, 1.0 mM): 7.20 | Extracellular pH, Normoxic condition (MDA-MB-231 cells [1]; MDA-MB-231, 1.0 mM): 7.20 | effect on extracellular pH (HT-29 cells [2]): improve the extracellular pH | Extracellular pH, Hypoxic condition (HT-29 cells [2]; HT-29, 0.1 mM): 6.82 | Extracellular pH, Normoxic condition (HT-29 cells [2]; HT-29, 0.1 mM): 6.96 | Extracellular pH, Hypoxic condition (HT-29 cells [2]; HT-29, 1.0 mM): 7.27 | Extracellular pH, Normoxic condition (HT-29 cells [2]; HT-29, 1.0 mM): 7.15 | viability at 800 µM (MG-63 cells; [6]): 76.6 ± 3.51% | viability at 800 µM (MG-63 cells; [7]): 81.6 ± 3.34% | inhibition of MG-63 cell viability (MG-63 cells; MG-63, normoxia and hypoxia): concentration-dependent | decrease in cell viability (HT-29 cells [3]): 20% | viability at 400 µM (HT-29 cells [3]; [6]): 81.1 ± 2.43% | viability at 400 µM (HT-29 cells [3]; [7]): 89.67 ± 0.554% | viability at 400 µM (MDA-MB-231 cells [4]; [6]): 86.5 ± 1.92% | viability at 400 µM (MDA-MB-231 cells [4]; [7]): 90.5 ± 0.965%

Second part, the molecule before the results:

Structure (SMILES): CC(=O)Nc1nnc(S(N)(=O)=O)s1 [AZM, acetazolamide, reference compound]
Extracellular pH, Hypoxic condition (MDA-MB-231 cells [1]; MDA-MB-231, 0.1 mM): 6.97 | Extracellular pH, Normoxic condition (MDA-MB-231 cells [1]; MDA-MB-231, 0.1 mM): 7.05 | Extracellular pH, Normoxic condition (MDA-MB-231 cells [1]; MDA-MB-231, 1.0 mM): 7.23 | Extracellular pH, Hypoxic condition (HT-29 cells [2]; HT-29, 0.1 mM): 6.90 | Extracellular pH, Normoxic condition (HT-29 cells [2]; HT-29, 0.1 mM): 6.97 | Extracellular pH, Hypoxic condition (HT-29 cells [2]; HT-29, 1.0 mM): 7.28 | Extracellular pH, Normoxic condition (HT-29 cells [2]; HT-29, 1.0 mM): 7.26 | viability at 800 µM (MG-63 cells; [6]): 81.7 ± 1.17% | viability at 800 µM (MG-63 cells; [7]): 87.1 ± 1.94% | viability at 400 µM (HT-29 cells [3]; [6]): 89.53 ± 0.161% | viability at 400 µM (HT-29 cells [3]; [7]): 91.7 ± 2.59% | viability at 400 µM (MDA-MB-231 cells [4]; [6]): 85.2 ± 1.96% | viability at 400 µM (MDA-MB-231 cells [4]; [7]): 96.2 ± 2.28%

Structure (SMILES): Cc1cc(-c2cn(-c3ccc(S(N)(=O)=O)cc3)nn2)ccc1NC(=O)CCC(=O)N[C@@H]1O[C@H](CO)[C@@H](O)[C@H](O)[C@H]1O [Compound 16e, N^1-(2-methyl-4-(1-(4-sulfamoylphenyl)-1H-1,2,3-triazol-4-yl)phenyl)-N^4-((2R,3R,4S,5S,6R)-3,4,5-trihydroxy-6-(hydroxymethyl)tetrahydro-2H-pyran-2-yl)succinamide]
IC50 (hCA IX): 84.7 nM | IC50 (hCA II): 41.6 nM | IC50 (hCA XII): 162 nM | viability at 400 µM (HT-29 cells [3]; [6]): 87.7 ± 1.79% | viability at 400 µM (HT-29 cells [3]; [7]): 91.5 ± 2.64% | viability at 400 µM (MDA-MB-231 cells [4]; [6]): 90.6 ± 2.76% | viability at 400 µM (MDA-MB-231 cells [4]; [7]): 87.2 ± 2.28%

Structure (SMILES): COc1cc(-c2cn(-c3ccc(S(N)(=O)=O)cc3)nn2)ccc1NC(=O)CCCC(=O)N[C@@H]1O[C@H](CO)[C@@H](O)[C@H](O)[C@H]1O [Compound 16m, N^1-(2-methoxy-4-(1-(4-sulfamoylphenyl)-1H-1,2,3-triazol-4-yl)phenyl)-N^5-((2R,3R,4S,5S,6R)-3,4,5-trihydroxy-6-(hydroxymethyl)tetrahydro-2H-pyran-2-yl)glutaramide]
IC50 (hCA IX): 99.6 nM | IC50 (hCA II): 88.1 nM | IC50 (hCA XII): 146 nM

— paper PMC8704611, “Synthesis, Molecular Docking Analysis, and Biological Evaluations of Saccharide-Modified Sulfonamides as Carbonic Anhydrase IX Inhibitors” (International Journal of Molecular Sciences, 2021)
